Patent US4596829A, “7-acylaminocephalosporanic acid derivatives and processes for the preparation thereof” (Fujisawa Pharmaceutical Co., Ltd., priority 1980, dated 1986)
≈ marks a conversion by molar mass, not a printed value.

What was measured:
[1] = test system: Proteus vulgaris IAM-1025; experiment: in vitro antimicrobial activity, two-fold agar-plate dilution method (MIC); format: cell-based; settings: IAM1025, heart infusion agar, 37° C., 20 hours
Procedure: (§1) In vitro antimicrobial activity was determined by the two-fold agar-plate dilution method as described below.
(§2) One loopful of an overnight culture of each test strain in Tripticase-soy broth (approximately 10^8 viable cells per ml) was streaked on heart infusion agar (HI-agar) containing graded concentrations of antimicrobial agents, and the minimal inhibitory concentration (MIC) was expressed in term of μg/ml after incubation at 37° C. for 20 hours.

[2] = test system: Pseudomonas aeruginosa NCTC-10490; experiment: as above; format: cell-based; settings: NCTC10490, heart infusion agar, 37° C., 20 hours
Procedure: as §1, §2

Compound | MIC [1] | MIC [2]
CC(O/N=C(\C(=O)NC1C(=O)N2C(C(=O)O)=CCSC12)c1nc(N)sc1Cl)C(=O)O (stereo not drawn) [Compound 1, 7-[2-(2-amino-5-chlorothiazol-4-yl)-2-(1-carboxyethoxyimino)acetamido]-3-cephem-4-carboxylic acid (syn isomer)] | 0.05 µg/mL (≈ 0.105 µM) | 0.78 µg/mL (≈ 1.64 µM)
C#CCO/N=C(\C(=O)NC1C(=O)N2C(C(=O)O)=C(CSc3nncs3)CSC12)c1nc(N)sc1Cl (stereo not drawn) [Compound 2, 7-[2-(2-amino-5-chlorothiazol-4-yl)-2-propargyloxyiminoacetamido]-3-(1,3,4-thiadiazol-2-yl)thiomethyl-3-cephem-4-carboxylic acid (syn isomer)] | 1.56 µg/mL (≈ 2.73 µM) | 0.78 µg/mL (≈ 1.36 µM)
Nc1nc(/C(=N/OCC(=O)O)C(=O)NC2C(=O)N3C(C(=O)O)=C(CSc4nncs4)CSC23)c(Cl)s1 (stereo not drawn) [Compound 3, 7-[2-(2-amino-5-chlorothiazol-4-yl)-2-carboxymethoxyiminoacetamido]-3-(1,3,4-thiadiazol-2-yl)thiomethyl-3-cephem-4-carboxylic acid (syn isomer)] | 0.025 µg/mL (≈ 0.0422 µM) | 0.78 µg/mL (≈ 1.32 µM)
C=CCO/N=C(\C(=O)NC1C(=O)N2C(C(=O)O)=C(CSc3nncs3)CSC12)c1nc(N)sc1Cl (stereo not drawn) [Compound 4, 7-[2-(2-amino-5-chlorothiazol-4-yl)-2-allyloxyiminoacetamido]-3-(1,3,4-thiadiazol-2-yl)thiomethyl-3-cephem-4-carboxylic acid (syn isomer)] | 1.56 µg/mL (≈ 2.72 µM) | 0.78 µg/mL (≈ 1.36 µM)
Nc1nc(/C(=N/OC2C=CCC2)C(=O)NC2C(=O)N3C(C(=O)O)=C(CSc4nncs4)CSC23)c(Cl)s1 (stereo not drawn) [Compound 5, 7-[2-(2-amino-5-chlorothiazol-4-yl)-2-(2-cyclopenten-1-yl)oxyiminoacetamido]-3-(1,3,4-thiadiazol-2-yl)thiomethyl-3-cephem-4-carboxylic acid (syn isomer)] | 0.39 µg/mL (≈ 0.65 µM) | 0.39 µg/mL (≈ 0.65 µM)
Nc1nc(/C(=N/OCC(=O)O)C(=O)NC2C(=O)N3C(C(=O)O)=C(Cl)CSC23)c(Cl)s1 (stereo not drawn) [Compound 6, 7-[2-(2-amino-5-chlorothiazol-4-yl)-2-carboxymethoxyiminoacetamido]-3-chloro-3-cephem-4-carboxylic acid (syn isomer)] | 0.05 µg/mL (≈ 0.101 µM) | 0.78 µg/mL (≈ 1.57 µM)
